5 compounds from patent US20240342292A1, “Compounds for the Degradation of EGFR Kinase” (BeiGene Switzerland GmbH, priority 2021, published 2024) can be followed below.

The target in one assay is T1, L858R/T790M/C797S EGFR (Homo sapiens, UniProt P00533, C797S/L858R/T790M).
T1 construct: expressed in transfected cells; host or cells: H1975 clone #25 (lentiviral over-expression, endogenous EGFR knocked out by sgRNA)
The assay is described as follows: EGFR degradation HTRF assay in H1975-clone #25 (LTC) cells. It is filed as cell-based. The conditions noted are these: 16h treatment; for DC50: H1975 # 25-LTC (L858R/T790M/C797S), HTRF; for Dmax: NCI-H1975, H1975 # 25-LTC (L858R/T790M/C797S), maximum percentage of degradation. The method in brief: (§1)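 EGFR levels quantified by HTRF on lysates after 16 h compound exposure (top 10 uM, 5-fold, 8 points) in single-cell H1975 clones expressing only exogenous mutant EGFR after sgRNA knockout of endogenous copies. DC50 derived by four-parameter logistic fitting of inhibition percentage.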

The subject of a further assay is Del19/T790M/C797S EGFR. The assay can be described thus: EGFR degradation HTRF assay in H1975-clone #28 (DTC) cells. It is filed as cell-based. The conditions noted are these: H1975 # 28 DTC (Del19/T790M/C797S), 16h treatment; for DC50: HTRF; for Dmax (%): maximum percentage of degradation. In a few lines:
as §1
On the technique in general: In TR-FRET formats the signal depends on donor and acceptor labels being close together.

T1 sequence (P00533 25-1210 T790M/C797S/L858R): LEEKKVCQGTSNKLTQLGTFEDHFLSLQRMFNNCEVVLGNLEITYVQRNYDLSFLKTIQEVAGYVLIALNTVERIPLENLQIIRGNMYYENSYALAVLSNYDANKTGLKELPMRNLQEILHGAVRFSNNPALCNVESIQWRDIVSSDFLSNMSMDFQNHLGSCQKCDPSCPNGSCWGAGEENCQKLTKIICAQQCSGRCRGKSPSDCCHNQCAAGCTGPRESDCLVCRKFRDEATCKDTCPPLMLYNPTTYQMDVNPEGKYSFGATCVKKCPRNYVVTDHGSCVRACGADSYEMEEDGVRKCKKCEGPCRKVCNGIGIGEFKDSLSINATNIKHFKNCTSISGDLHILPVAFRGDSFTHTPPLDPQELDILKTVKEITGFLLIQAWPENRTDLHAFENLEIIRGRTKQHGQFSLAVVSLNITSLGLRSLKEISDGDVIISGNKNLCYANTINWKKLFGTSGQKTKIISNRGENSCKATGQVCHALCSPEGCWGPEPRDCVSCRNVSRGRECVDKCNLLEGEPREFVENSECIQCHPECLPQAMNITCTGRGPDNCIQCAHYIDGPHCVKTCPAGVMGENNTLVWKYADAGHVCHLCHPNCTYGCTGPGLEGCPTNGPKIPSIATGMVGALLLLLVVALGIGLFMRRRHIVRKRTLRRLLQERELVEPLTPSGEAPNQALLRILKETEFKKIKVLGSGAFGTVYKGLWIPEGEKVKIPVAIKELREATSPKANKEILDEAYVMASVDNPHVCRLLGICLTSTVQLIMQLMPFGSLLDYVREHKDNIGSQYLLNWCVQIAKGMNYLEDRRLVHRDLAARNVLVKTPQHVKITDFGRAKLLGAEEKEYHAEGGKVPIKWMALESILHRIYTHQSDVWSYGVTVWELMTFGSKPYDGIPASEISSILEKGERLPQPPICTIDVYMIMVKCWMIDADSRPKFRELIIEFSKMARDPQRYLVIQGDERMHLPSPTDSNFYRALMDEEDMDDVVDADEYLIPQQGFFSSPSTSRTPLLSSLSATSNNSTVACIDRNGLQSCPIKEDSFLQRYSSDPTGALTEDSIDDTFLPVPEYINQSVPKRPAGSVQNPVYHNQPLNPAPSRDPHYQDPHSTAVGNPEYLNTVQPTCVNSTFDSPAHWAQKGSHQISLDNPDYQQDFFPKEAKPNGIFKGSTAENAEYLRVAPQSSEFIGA

Take `Cc1cc2cc(n1)-c1cnn(C)c1OCCC[C@@H](C)CN1/C(=N/C2=O)Nc2ccc(C(=O)N(C)[C@@H]3CCN(CCc4cc(F)c([C@H]5CCC(=O)NC5=O)c(F)c4)CC3(F)F)cc21` [Example 250, (R,E)-N—((R)-1-(4-((R)-2,6-dioxopiperidin-3-yl)-3,5-difluorophenethyl)-3,3-difluoropiperidin-4-yl)-N,1^1,2^6,7-tetramethyl-3-oxo-5^2,5^3-dihydro-1^1H,5^1H-11-oxa-4-aza-5(2,1)-benzo[d]imidazola-2(2,4)-pyridina-1(4,5)-pyrazolacycloundecaphane-5^6-carboxamide]: on L858R/T790M/C797S EGFR, it took 1.06 nM to reach half-maximal degradation (DC50) and the greatest degradation seen (Dmax) came out at 88.9%. In the assay with Del19/T790M/C797S EGFR, the DC50 worked out at 0.59 nM and the “Dmax (%)” value is reported as 82.13%.

At L858R/T790M/C797S EGFR, `CO[C@@H]1CN(CCc2cc(F)c([C@H]3CCC(=O)NC3=O)c(F)c2)CC[C@H]1N(C)C(=O)c1ccc2c(c1)N1C[C@H](C)CCCOc3c(cnn3C)-c3cc(cc(C)n3)C(=O)/N=C/1N2` [Example 254, (R,E)-N—((3R,4R)-1-(4-((R)-2,6-dioxopiperidin-3-yl)-3,5-difluorophenethyl)-3-methoxypiperidin-4-yl)-N,1^1,2^6,7-tetramethyl-3-oxo-5^2,5^3-dihydro-1^1H,5^1H-11-oxa-4-aza-5(2,1)-benzo[d]imidazola-2(2,4) -pyridina-1(4,5)-pyrazolacycloundecaphane-5^6-carboxamide] registered a DC50 of 0.91 nM and a Dmax of 91.2%. For the same compound, in the assay on Del19/T790M/C797S EGFR, it took 0.624 nM to reach half-maximal degradation (DC50) and the “Dmax (%)” value is reported as 86.3%.

Turning to `Cc1cc2cc(n1)-c1cnn(C)c1OCCC[C@@H](C)CN1/C(=N/C2=O)Nc2ccc(N3CCN(CCC4CCN(c5cc(F)c([C@H]6CCC(=O)NC6=O)c(F)c5)CC4)CC3=O)cc21` [Example 437, (R)-3-(2,6-difluoro-4-(4-(2-(3-oxo-4-((R,E)-1^1,2^6,7-trimethyl-3-oxo-5^2,5^3-dihydro-1^1H,5^1H-11-oxa-4-aza-5(2,1)-benzo[d]imidazola-2(2,4)-pyridina-1(4,5)-pyrazolacycloundecaphane-5^6-yl)piperazin-1-yl)ethyl)piperidin-1-yl)phenyl)piperidine-2,6-dione], at L858R/T790M/C797S EGFR, half-maximal degradation (DC50) was put at 1.01 nM and the Dmax came to 91%. In the assay with Del19/T790M/C797S EGFR, the DC50 turned out to be 0.534 nM and the “Dmax (%)” value came out at 88.76%.

`Cc1cc2cc(n1)-c1cnn(C)c1OCCC[C@@H](C)CN1/C(=N/C2=O)Nc2ccc(N3CCC(N4CCN(c5cc(F)c([C@H]6CCC(=O)NC6=O)c(F)c5)CC4)CC3)cc21` [Example 387, (R)-3-(2,6-difluoro-4-(4-(1-((R,E)-1^1,2^6,7-trimethyl-3-oxo-5^2,53-dihydro-1^1H,5^1H-11-oxa-4-aza-5(2,1)-benzo[d]imidazola-2(2,4)-pyridina-1(4,5)-pyrazolacycloundecaphane-5^6-yl)piperidin-4-yl)piperazin-1-yl)phenyl)piperidine-2,6-dione]: at L858R/T790M/C797S EGFR, the DC50 came to 1.46 nM and the Dmax is 87.2%. Besides, in the assay on Del19/T790M/C797S EGFR, the DC50 came to 0.782 nM and the “Dmax (%)” value was 76.00%.

On L858R/T790M/C797S EGFR, `Cc1cc2cc(n1)-c1cnn(C)c1OCCC[C@@H](C)CN1/C(=N/C2=O)Nc2ccc(OC3CCN(C(=O)C4CN(c5cc(F)c([C@H]6CCC(=O)NC6=O)c(F)c5)C4)CC3)cc21` [Example 156, (R)-3-(2,6-difluoro-4-(3-(4-(((R,E)-1^1,2^6,7-trimethyl-3-oxo-5^2,5^3-dihydro-1^1H,5^1H-11-oxa-4-aza-5(2,1)-benzo[d]imidazola-2(2,4)-pyridina-1(4,5)-pyrazolacycloundecaphane-5^6-yl)oxy)piperidine-1-carbonyl)azetidin-1-yl)phenyl)piperidine-2,6-dione] came in with a DC50 of 0.634 nM and a Dmax of 86.9%. Further, in the assay on Del19/T790M/C797S EGFR, the DC50 is 1.2 nM and the “Dmax (%)” value was 72.74%.

Usually DC50 stands for the concentration giving 50% degradation. Read a high DC50 as degradation only at high concentration. The term Dmax denotes the greatest extent of degradation seen.
